Assays:
[1] = test system: Erigeron canadensis; test: Herbicidal activity against compound-sensitive Conyza canadensis (horseweed) under greenhouse condition at 2.52 kg ae/ha measured 7 days post treatment relative to control; type: functional
[2] = test system: Erigeron canadensis; test: Herbicidal activity against compound-sensitive Conyza canadensis (horseweed) under greenhouse condition assessed as fresh weight at 2.52 kg ae/ha measured 21 days post treatment relative to untreated control
[3] = test system: Erigeron canadensis; test: Herbicidal activity against compound-resistant Conyza canadensis (horseweed) isolate 2 under greenhouse condition assessed as fresh weight at 0.45 kg ae/ha measured 21 days post treatment relative to untreated control
[4] = test system: Erigeron canadensis; test: Herbicidal activity against compound-resistant Conyza canadensis (horseweed) isolate 1 under greenhouse condition assessed as fresh weight at 2.52 kg ae/ha measured 21 days post treatment relative to untreated control
[5] = test system: Erigeron canadensis; test: Herbicidal activity against compound-resistant Conyza canadensis (horseweed) isolate 2 under greenhouse condition at 1.25 kg ae/ha measured 14 days post treatment relative to control; type: functional
[6] = test system: Erigeron canadensis; test: Herbicidal activity against compound-resistant Conyza canadensis (horseweed) isolate 2 under greenhouse condition at 2.52 kg ae/ha measured 14 days post treatment relative to control; type: functional
[7] = test system: Erigeron canadensis; test: Herbicidal activity against compound-resistant Conyza canadensis (horseweed) isolate 2 under greenhouse condition at 1.25 kg ae/ha measured 21 days post treatment relative to control; type: functional
[8] = test system: Erigeron canadensis; test: Herbicidal activity against compound-resistant Conyza canadensis (horseweed) isolate 2 under greenhouse condition at 1.68 kg ae/ha measured 21 days post treatment relative to control; type: functional
[9] = test system: Erigeron canadensis; test: Herbicidal activity against compound-sensitive Conyza canadensis (horseweed) under greenhouse condition at 9 kg ae/ha measured 14 days post treatment relative to control; type: functional
[10] = test system: Erigeron canadensis; test: Herbicidal activity against compound-sensitive Conyza canadensis (horseweed) under greenhouse condition at 9 kg ae/ha measured 7 days post treatment relative to control; type: functional
[11] = test system: Erigeron canadensis; test: Herbicidal activity against compound-resistant Conyza canadensis (horseweed) isolate 2 under greenhouse condition at 3.36 kg ae/ha measured 7 days post treatment relative to control; type: functional
[12] = test system: Erigeron canadensis; test: Herbicidal activity against compound-sensitive Conyza canadensis (horseweed) under greenhouse condition at 9 kg ae/ha measured 21 days post treatment relative to control; type: functional
[13] = test system: Erigeron canadensis; test: Herbicidal activity against compound-resistant Conyza canadensis (horseweed) isolate 1 under greenhouse condition at 0.84 kg ae/ha measured 14 days post treatment relative to control; type: functional
[14] = test system: Erigeron canadensis; test: Herbicidal activity against compound-sensitive Conyza canadensis (horseweed) under greenhouse condition assessed as fresh weight at 1.25 kg ae/ha measured 21 days post treatment relative to untreated control

O=C(O)CNCP(=O)(O)O [GLYPHOSATE]
Activity [1]: 83%
level, % of control [2]: 2%
level, % of control [3]: 94%
level, % of control [4]: 25%
Activity [5]: 15%
Activity [6]: 50%
Activity [7]: 25%
Activity [8]: 50%
Activity [9]: 98%
Activity [10]: 90%
Activity [11]: 60%
Activity [12]: 99%
Activity [13]: 13%
level, % of control [14]: 19%

Reference: ChEMBL document CHEMBL3045777, “Response of selected horseweed (Conyza canadensis (L.) Cronq.) populations to glyphosate” (2004)
